Patent publication US11083677B2, “Cosmetic base including amide alcohol, and cosmetic” (Kokyu Alcohol Kogyo Co., Ltd., priority 2016, dated 2021)
“Also recorded” adds a separate entry of the source.

Experiments:
[1] = Evaluation of solubility and gelling ability (critical gelation concentration, sample tube inversion method); format: physicochemical
Method: The amide alcohol and each liquid were heated and mixed, and the critical gelation concentration was measured by sample tube inversion method.
Sample tube used: used tube: Maruemu screw tube No. 7 (trunk diameter 35 mm, total length 78 mm)

[2] = Solubility of glycerin with various alcohols

SMILES | solubility and gelling ability ([1]; Ethanol) | solubility and gelling ability ([1]; Glycerin) | behaviour with glycerin (in words) ([1]; Glycerin) | concentration for thickening ([1]; Glycerin) | behaviour with glycerin (in words) ([1]; Glycerin, listed as 4HN CHBA) | concentration for thickening ([1]; Octyldodecanol) | solubility and gelling ability ([1]; Octyldodecyl myristate) | solubility and gelling ability ([1]; Squalane) | solubility and gelling ability ([1]; Triethylhexanoin) | behaviour with water (in words) ([1]; Water) | solubility and gelling ability ([1]; Water) | solubility and gelling ability ([1]; Octyldodecanol) | behaviour with ester oil (in words) [1] | solubility with glycerin (in words) [2]
CCCCCCCCCCCCCCNC(=O)CCCO [4HN-MBA, 4-hydroxy-N-myristyl, butyramide] | S | I |  |  |  |  |  |  |  |  |  |  |  | 
CCCCCCCCNC(=O)CCCO [4HN-OBA, 4-hydroxy-N-octyl, butyramide] | S |  | gelled; also recorded: thickening/gelation |  |  |  |  | I |  | solubility in water | S | S | gelled | 
CCCCCCCCCCCCNC(=O)CCCO [4HN-LBA, 4-hydroxy-N-lauryl, butyramide] | S |  | gelled |  |  |  |  |  |  | emulsification-gelled |  |  | gelled | 
CCCCCCCCCCCCCCCCCCNC(=O)CCCO [4HN-STBA, 4-hydroxy-N-stearyl, butyramide] | I | I |  |  |  |  |  |  |  |  | I |  |  | 
CCCCCCCCCCCCNC(=O)CCCCCO [6HN-LHA, 6-hydroxy-N-lauryl, hexylamide] | S | I |  |  |  |  |  |  |  |  | I |  |  | 

Now from value to compound:

solubility and gelling ability ([1]; Ethanol) | solubility and gelling ability ([1]; Glycerin) | behaviour with glycerin (in words) ([1]; Glycerin) | concentration for thickening ([1]; Glycerin) | behaviour with glycerin (in words) ([1]; Glycerin, listed as 4HN CHBA) | concentration for thickening ([1]; Octyldodecanol) | solubility and gelling ability ([1]; Octyldodecyl myristate) | solubility and gelling ability ([1]; Squalane) | solubility and gelling ability ([1]; Triethylhexanoin) | behaviour with water (in words) ([1]; Water) | solubility and gelling ability ([1]; Water) | solubility and gelling ability ([1]; Octyldodecanol) | behaviour with ester oil (in words) [1] | solubility with glycerin (in words) [2] | SMILES
S |  | thickened | (≥12 wt %) | thickening/gelation | (≥18 wt %) | I | I | I | solubility in water | S |  |  |  | O=C(CCCO)NC1CCCCC1 [4HN-CHBA, 4-hydroxy-N-cyclohexyl, butyramide]
S | I |  |  |  |  |  |  |  |  | I | S |  |  | CCCCCCCC/C=C\CCCCCCCCNC(=O)CCCO [4HN-OLBA, 4-hydroxy-N-oleyl, butyramide]
S | S |  |  |  |  | S | I | I |  | I | S |  | can be dissolved | CCCCC(CC)CNC(=O)CCCO (centres unmarked) [4HN-EHBA, 4-hydroxy-N-2-ethylhexyl, butyramide]
